Results as given in publication PMC2674504, “Foam nest components of the túngara frog: a cocktail of proteins conferring physical and biological resilience” (Proceedings of the Royal Society B: Biological Sciences, 2009).
Where a SMILES comes first, the peptide text is derived from it. The star is where a group is joined. AMC = Cc1cc(=O)oc2cc(N*)ccc12; Cbz = O=C(OCc1ccccc1)*

Columns and labels:
Rsn-4 [1] = biological target: T1, Rsn-4 (Engystomops pustulosus, UniProt B5DCK4); test: haemagglutination inhibition (human erythrocytes); lactose-agarose affinity chromatography eluted with […] lactose; type: binding; details: 20 mM sugar; 10 mM HEPES, 150 mM NaCl, 2 mM CaCl2; room temperature
T1 construct: dimer or higher order
T1 sequence (B5DCK4 20-193): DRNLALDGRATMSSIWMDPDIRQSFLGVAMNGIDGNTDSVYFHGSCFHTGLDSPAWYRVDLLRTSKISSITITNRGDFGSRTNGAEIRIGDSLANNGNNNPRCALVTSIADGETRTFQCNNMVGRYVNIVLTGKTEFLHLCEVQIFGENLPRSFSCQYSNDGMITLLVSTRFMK

Rsn-4 [2] = biological target: T1, Rsn-4; test: haemagglutination inhibition (human erythrocytes); type: cell-based; details: 20 mM sugar; 10 mM HEPES, 150 mM NaCl, 2 mM CaCl2; room temperature; protein refolded in buffer with 20 mM galactose
papain = biological target: T2, papain (Carica papaya, UniProt P00784); test: fluorogenic proteolysis assay (ex […] nm, em […] nm); type: biochemical; details: 0.1 M acetate pH 5.0, 10 mM dithiothreitol, 2 mM EDTA, 30 °C; mere turnover
T2 construct: commercial enzyme from papaya latex (Sigma)
T2 sequence (P00784 134-345): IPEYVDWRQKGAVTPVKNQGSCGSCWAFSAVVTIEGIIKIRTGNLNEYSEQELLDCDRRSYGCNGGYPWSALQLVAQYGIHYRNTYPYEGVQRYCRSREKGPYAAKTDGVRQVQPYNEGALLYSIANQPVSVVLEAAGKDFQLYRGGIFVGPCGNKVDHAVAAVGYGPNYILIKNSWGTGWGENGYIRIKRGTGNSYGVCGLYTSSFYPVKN

SMILES: OC[C@H]1O[C@@H](O[C@H]2[C@H](O)[C@@H](O)C(O)O[C@@H]2CO)[C@H](O)[C@@H](O)[C@H]1O (stereo partly drawn) [lactose]
- haemagglutination inhibition (human erythrocytes); lactose-agarose affinity chro (Rsn-4 [1]): Rsn-4 could be inhibited with lactose and galactose

SMILES: OC[C@H]1OC(O)[C@H](O)[C@@H](O)[C@H]1O (stereo partly drawn) [galactose]
- haemagglutination inhibition (human erythrocytes) (Rsn-4 [2]): agglutination by Rsn-4 was unaffected by fucose but completely inhibited by galactose

SMILES: Cc1cc(=O)oc2cc(NC(=O)[C@H](CCCNC(=N)N)NC(=O)[C@H](Cc3ccccc3)NC(=O)OCc3ccccc3)ccc12 [Z-Phe-Arg 7-amido-4-methylcoumarin] (Cbz-Phe-Arg-{AMC})
- fluorogenic proteolysis assay (ex 370 nm, em 470 nm) (papain): papain) was investigated using fluorogenic or chromogenic substrates, Z-Phe-Arg 7-amido-4-methylcoumarin
